The record followed here is US11440903B2, “Salt form and crystal form of compound as FGFR4 inhibitor and preparation method thereof” (GUANGDONG ZHONGSHENG PHARMACEUTICAL CO., LTD, priority 2017, dated 2022).

The structures appear in SMILES notation.

This data set is described as follows: Stability of the crystal form on stirring as suspension in solvent (40° C., 2 days). It is filed as physicochemical. The note with it: stirring in methanol at 40° C. for 2 days. The gist of the method:
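Suspensions of compound in acetonitrile-water (1:1), ethyl acetate, methanol or ethanol stirred in the dark at 40° C. for 2 days, centrifuged, solids vacuum-dried at 30° C. overnight (room temperature for formula (II)). Some samples first dissolved under ultrasound and partly evaporated. Resulting crystal form identified by XRPD, with DSC and TGA.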

`C=CC(=O)N[C@H]1COC[C@H]1Nc1ncc(/C=C(\F)c2c(Cl)c(OC)cc(OC)c2Cl)cn1` [Crystal Form B]: the “stability in the methanol solution” value is given as “substantially high stability”. With `C=CC(=O)N[C@H]1COC[C@H]1Nc1ncc(/C=C(\F)c2c(Cl)c(OC)cc(OC)c2Cl)cn1.CS(=O)(=O)O` [Crystal Form E], the “stability in the methanol solution” value is “substantially high stability”.
